Assay results as given in article PMC11874779 (Drug Design, Development and Therapy, 2025).

Tested on: Baf3-EGFR^19del/T790M/C797S
Experiment: Xenograft tumor model
Type: in vivo, BALB/c nude mice
Conditions: 100 mg/kg ig daily, 9 days, from tumor weight

## C=CC(=O)Nc1cc(Nc2nccc(-c3cn(C)c4ccccc34)n2)c(OC)cc1N(C)CCN(C)C [Osimertinib]
  Tumor Growth Inhibition value (TGI): 13.5%
